pIC50: −log10 of the molar value.
What follows are compounds tested against T1, human kinase Mps-1 (Homo sapiens, UniProt P33981) (assay: Mps-1 kinase assay (HTRF)).
T1 construct: N-terminally GST-tagged human full length recombinant Mps-1 kinase; GST (N); purchased Invitrogen, Karslruhe, Germany PV4071
T1 sequence (P33981 1-857): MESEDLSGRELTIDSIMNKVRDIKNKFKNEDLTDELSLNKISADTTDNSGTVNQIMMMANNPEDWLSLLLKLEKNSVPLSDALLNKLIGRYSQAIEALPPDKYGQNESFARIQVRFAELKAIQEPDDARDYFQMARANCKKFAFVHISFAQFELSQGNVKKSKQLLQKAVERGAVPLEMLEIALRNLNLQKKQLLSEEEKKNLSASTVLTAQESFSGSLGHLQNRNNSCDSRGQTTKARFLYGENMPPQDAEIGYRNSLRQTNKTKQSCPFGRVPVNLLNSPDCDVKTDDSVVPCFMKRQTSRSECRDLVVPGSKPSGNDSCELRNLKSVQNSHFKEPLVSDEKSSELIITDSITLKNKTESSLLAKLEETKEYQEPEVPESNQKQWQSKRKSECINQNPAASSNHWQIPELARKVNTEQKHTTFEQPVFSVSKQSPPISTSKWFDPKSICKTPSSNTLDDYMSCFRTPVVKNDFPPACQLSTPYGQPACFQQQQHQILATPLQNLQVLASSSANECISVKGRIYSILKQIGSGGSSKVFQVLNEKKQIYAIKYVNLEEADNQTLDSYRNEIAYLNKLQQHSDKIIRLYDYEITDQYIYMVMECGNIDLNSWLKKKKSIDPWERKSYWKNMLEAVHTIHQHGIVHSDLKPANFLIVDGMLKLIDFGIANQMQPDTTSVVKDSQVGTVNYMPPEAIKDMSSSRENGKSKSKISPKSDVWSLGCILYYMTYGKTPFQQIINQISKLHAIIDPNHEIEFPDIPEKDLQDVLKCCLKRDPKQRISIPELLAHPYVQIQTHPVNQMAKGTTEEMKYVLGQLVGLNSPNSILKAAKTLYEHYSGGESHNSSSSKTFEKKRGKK
Format: biochemical
For `O=C(NCCO)c1ccc(Nc2nc3ccc(-c4cccc(C(=O)NCC(F)(F)F)c4)cn3n2)c(OCC(F)(F)F)c1` [Example 11.093, N-(2-hydroxyethyl)-3-(2,2,2-trifluoroethoxy)-4-[(6-{3-[(2,2,2-trifluoroethyl)carbamoyl]phenyl}[1,2,4]triazolo [1,5-a]pyridin-2-yl)amino]benzamide], the pIC50 was ≥ 9.00. For `CC(C)(CO)NC(=O)c1ccc(Nc2nc3ccc(-c4cccc(C(=O)NCC(F)(F)F)c4)cn3n2)c(OCC(F)(F)F)c1` [Example 11.094, N-(1-hydroxy-2-methylpropan-2-yl)-3-(2,2,2-trifluoroethoxy)-4-[(6-{3-[(2,2,2-trifluoroethyl)carbamoyl]phenyl}[1,2,4]triazolo [1,5-a]pyridin-2-yl)amino]benzamide], the pIC50 was ≥ 9.00. In the case of `CC(C)(C)CNC(=O)c1cccc(-c2ccc3nc(Nc4ccc(C(=O)NCC(C)(C)O)cc4OCC(F)(F)F)nn3c2)c1` [Example 11.095, 4-[(6-{3-[(2,2-dimethylpropyl)carbamoyl]phenyl}[1,2,4]tria-zolo[1,5-a]pyridin-2-yl)amino]-N-(2-hydroxy-2-methylpropyl)-3-(2,2,2-trifluoroethoxy)benzamide], the pIC50 was ≥ 9.00. `CC(C)(O)CNC(=O)c1ccc(Nc2nc3ccc(-c4cccc(C(=O)NCC(F)(F)F)c4)cn3n2)c(OCC(F)(F)F)c1` [Example 11.096, N-(2-hydroxy-2-methylpropyl)-3-(2,2,2-trifluoroethoxy)-4-[(6-{3-[(2,2,2-trifluoroethyl)carbamoyl]phenyl}[1,2,4]triazolo [1,5-a]pyridin-2-yl)amino]benzamide] was tested, and the pIC50 was ≥ 9.00. `CNS(=O)(=O)c1cccc(-c2ccc3nc(Nc4cccc(F)c4C#N)nn3c2)c1` [Example 11.098, 3-{2-[(2-cyano-3-fluorophenyl)amino][1,2,4]triazolo[1,5-a]pyridin-6-yl}-N-methylbenzenesulfonamide] was tested, and the pIC50 was 7.01. `CC(C)(C)CC(=O)Nc1ccc(-c2ccc3nc(Nc4ccccc4C#N)nn3c2)cc1` [Example 11.099, N-(4-{2-[(2-cyanophenyl)amino][1,2,4]triazolo[1,5-a]pyridin-6-yl}phenyl)-3,3-dimethylbutanamide] showed a pIC50 of 7.72. Compound `CC(C)(C)CCC(=O)Nc1ccc(-c2ccc3nc(Nc4ccccc4C#N)nn3c2)cc1` [Example 11.100, N-(4-{2-[(2-cyanophenyl)amino][1,2,4]triazolo[1,5-a]pyridin-6-yl}phenyl)-4,4-dimethylpentanamide] has a pIC50 of 8.09. In the case of `COc1cc(C(=O)NC(C)(C)C)ccc1Nc1nc2ccc(-c3ccc(NC(=O)CC(F)(F)F)cc3)cn2n1` [Example 11.101, N-tert-butyl-3-methoxy-4-[(6-{4-[(3,3,3-trifluoropropanoyl)amino]phenyl}[1,2,4]triazolo [1,5-a]pyridin-2-yl)amino]benzamide], the pIC50 was 8.60.

Source: patent US20130121994A1, “TRIAZOLOPYRIDINE DERIVATIVES” (BAYER INTELLECTUAL PROPERTY GMBH, priority 2009, published 2013)
